Results reported in US20210130767A1, “Species of Genus Pholiota and Artificial Cultivation Method and Use Thereof” (Guangdong Institute of Microbiology (Guangdong Detection …, priority 2019, published 2021).

Test system: Staphylococcus aureus
Test: Determination of inhibition zone (agar well diffusion, coating / pour plate method)
Assay type: cell-based
Conditions: 24 h, 37° C., 1 day, x ± s, n = 3, positive control ampicillin 5 μg/mL, read-out: inhibition zone diameter
Experimental: Bacterial medium: nutrient agar/broth medium;
Nutrition agar/broth medium: beef paste 3 g, peptone 10 g, sodium chloride 5 g, agar 15 g, add water to 1000 ml, and adjust the pH to 7.4 (nutrient broth without agar).
Preparation of ethyl acetate extract: using rice medium (formulated rice and water), the strain of the present invention was incubated and cultured for 45 days, ethyl acetate was added, ultrasonic extraction was performed twice, 40 minutes for each time, and the extract was combined. The solvent was recovered in a rotary evaporator, and steamed to about 1-2 mL of the extract, and transferred to a collection bottle, the ethyl acetate extract is obtained and placed in a vacuum desiccator. After the solvent was completely evaporated, it was transferred to a refrigerator at 4° C. for use, and was filtrated and sterilizd with the bacteria syringe and filter for use.
Positive control preparation: Ampicillin solution, diluted with sterile water to a concentration of 5 μg/mL of the control solution, UV sterilization for 30 min. […]
The counted bacteria solution was diluted to a final concentration of 10^5˜10^6 cfu/mL, and 200 μL of the prepared bacteria suspension was pipetted onto the plate and uniformly coated with a coater. […] The culture was allowed to stand for 1 day, and the size of inhibition zone was measured. […]

For `CC1(C)S[C@@H]2[C@H](NC(=O)[C@H](N)c3ccccc3)C(=O)N2[C@H]1C(=O)O` [Positive control, Ampicillin], the zone of inhibition at 5 µg/mL was 19.8 ± 1.7 mm.
